For data set [1], the system named is green peach aphid (Myzus persicae). Briefly: Contrasting example: Myzus persicae spray test (MYZUPE). The class given is in vivo. Particulars: MYZUPE, 100 g ai/ha, 6 dat; for pest or weed control at 100 g/ha: Myzus persicae, 144 h, read-out: % efficacy. In short, it runs like this: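 Chinese cabbage leaf discs carrying all stages of the aphid were sprayed with compound in acetone/dimethylformamide, diluted with water containing alkylaryl polyglycol ether emulsifier. After the set period, efficacy was scored as % of aphids killed (100% = all dead, 0% = none).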

Data set [2] has as its system greenhouse red spider mite (Tetranychus urticae). Briefly: Contrasting example: Tetranychus urticae spray test, OP resistant (TETRUR). As to conditions: 500 g ai/ha, 6 dat. The class given is in vivo. As to the method:
Tetranychus urticae—Spray Test; OP Resistant (TETRUR)
(§1) Solvents: 78.0 parts by weight of acetone • • 1.5 parts by weight of dimethylformamide
(§2) Emulsifier: alkylaryl polyglycol ether
(§3) To produce a suitable active compound preparation, 1 part by weight of active compound is dissolved using the stated parts by weight of solvent and made up with water containing an emulsifier concentration of 1000 ppm until the desired concentration is attained. To produce further test concentrations, the preparation is diluted with emulsifier-containing water.
Discs of bean leaves (Phaseolus vulgaris), infested by all stages of the greenhouse red spider mite (Tetranychus urticae) are sprayed with an active compound preparation of the desired concentration.
After the desired period of time, the efficacy in % is determined. 100% means that all spider mites were killed; 0% means that no spider mites were killed.

For data set [3], the system named is larvae of the mustard beetle (Phaedon cochleariae). Briefly: Contrasting example: Phaedon cochleariae spray test (PHAECO). The class given is in vivo. As to conditions: 500 g ai/ha, 7 dat. As to the method:
Phaedon cochleariae—Spray Test (PHAECO)
as §1, §2, §3
After the desired period of time, the efficacy in % is determined. 100% means that all beetle larvae were killed; 0% means that no beetle larvae were killed.

Data set [4] is described as follows: log P by HPLC on reversed-phase C18 columns (OECD Guideline 117). Particulars: for logP[a]: method [a]; for logP[b]: method [b]. The class given is physicochemical. In short, it runs like this:
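Reversed-phase C18 HPLC per OECD 117, LC-MS with a linear 10% to 95% acetonitrile gradient. Acidic method at pH 2.7 with 0.1% formic acid; neutral method at pH 7.8 with 0.001 M ammonium hydrogencarbonate.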

Data set [5] relates to green peach aphid (Myzus persicae). As to the kind of experiment: Myzus persicae spray test (Chinese cabbage leaf discs). The class given is in vivo. Particulars: after 5 or 6 days, Chinese cabbage leaf discs. In outline: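 Compound is taken up in acetone/DMF and made up with emulsifier-containing water (1000 ppm), then sprayed onto aphid-infested cabbage leaf discs. After 5 or 6 days, percent kill is determined (100% = all dead, 0% = none).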

Data set [6] concerns greenhouse red spider mite (Tetranychus urticae). As to the kind of experiment: Tetranychus urticae spray test, OP-resistant (bean leaf discs). The class given is in vivo. Particulars: application rate 500 g/ha, after 6 days. Here is the method: Tetranychus urticae—Spray Test, OP-Resistant
Solvent: 78.0 parts by weight of acetone • • 1.5 parts by weight of dimethylformamide
as §2, §3
Discs of bean leaves (Phaseolus vulgaris) infested with all stages of the greenhouse red spider mite (Tetranychus urticae) are sprayed with an active compound preparation of the desired concentration.
After 6 days, the efficacy in % is determined. 100% means that all the spider mites had been killed; 0% means that no spider mites had been killed.

Data set [7] concerns southern root-knot nematode (Meloidogyne incognita). Briefly: Meloidogyne incognita test (gall formation on lettuce). The class given is in vivo. As to conditions: application rate 20 ppm; after 14 days. Here is the method:
Meloidogyne incognita Test
Solvent: 125.0 parts by weight of acetone
To produce a suitable preparation of active compound, 1 part by weight of active compound is mixed with the stated amount of solvent and the concentrate is diluted with water to the desired concentration.
Vessels are filled with sand, active compound solution, an egg/larvae suspension of the southern root-knot nematode (Meloidogyne incognita) and lettuce seeds. The lettuce seeds germinate and the plants develop. The galls develop on the roots.
After 14 days, the nematicidal efficacy in % is determined by the formation of galls. 100% means that no galls were found; 0% meant that the number of galls on the treated plants corresponds to the untreated control.

Data set [8] has as its system larvae of the mustard beetle (Phaedon cochleariae). Briefly: Phaedon cochleariae spray test (Chinese cabbage leaf discs). The class given is in vivo. As to conditions: application rate 500 g/ha, after 7 days. As to the method: Phaedon cochleariae—Spray Test
as §1, §2, §3
After 7 days, the efficacy in % is determined. 100% means that all beetle larvae were killed; 0% means that no beetle larvae were killed.

Data set [9] deals with green peach aphid (Myzus persicae). As to the kind of experiment: Myzus persicae spray test (bell pepper plants). The class given is in vivo. Particulars: application rate 20 ppm, after 6 days. Here is the method:
Myzus persicae—Spray Test
Solvent: 14 parts by weight of dimethylformamide
as §2
To produce a suitable active compound preparation, 1 part by weight of active compound is dissolved using the stated parts by weight of solvent and made up with water containing an emulsifier concentration of 1000 ppm until the desired concentration is attained. To produce further test concentrations, the preparation is diluted with emulsifier-containing water. If the addition of ammonium salts and/or penetrants is required, these are each added in a concentration of 1000 ppm to the formulation solution.
Bell pepper plants (Capsicum annuum) severely infested with the green peach aphid (Myzus persicae) are treated by spraying with the active compound preparation in the desired concentration.
After 6 days, the kill in % is determined. 100% means that all of the aphids have been killed; 0% means that none of the aphids have been killed.

Here are results for 13 molecules from patent publication US10368545B2, “Substituted 2-thioimidazolylcarboxamides as pesticides” (BAYER CROPSCIENCE AKTIENGESELLSCHAFT, priority 2015, dated 2019).

Take `O=C(Nc1cccnc1)c1c[nH]cn1` [Example 13]: the pest or weed control at 100 g/ha in data set [1] turned out to be 0%. Besides, the “% efficacy” value in data set [2] and in data set [3] was 0% each time.
Consider `Cc1nc(C(=O)Nc2cccnc2)c[nH]1` [Example 14], for which the pest or weed control at 100 g/ha in data set [1] came to 0%. Further, the “% efficacy” value in data set [2] and in data set [3] was 0% in each case.
With `CCCCCSc1ncc(C(=O)N(C)c2cccnc2)n1C` [I-A-6], the “logP[a]” value in data set [4] is recorded as 2.03. Further, the “logP[b]” value in [4] is 2.33. In addition, the “efficacy (aphids killed)” value in data set [5] (application rate 500 g/ha) is 90%. Besides, the “efficacy (spider mites killed)” value in data set [6] was found to be 90%. Besides, the “% efficacy” value in data set [1] and in data set [2] was 90% each time.
Regarding `CN(C(=O)c1cnc(SCc2ccccc2)n1C)c1cccnc1` [I-A-7], in data set [4], the “logP[a]” value came to 1.68 and the “logP[b]” value amounted to 1.91. The “nematicidal efficacy (formation of galls)” value in data set [7] amounted to 90%. Moreover, the “efficacy (aphids killed)” value in [5] (application rate 500 g/ha) was determined as 90%. In addition, the “% efficacy” value in data set [1] is on record as 70%.
On to `CN(C(=O)c1c(Cl)nc(Sc2ncccn2)n1C)c1cccnc1` [I-A-15], for which, in [4], the “logP[a]” value stood at 1.24 and the “logP[b]” value turned out to be 1.34. Besides, the “efficacy (beetle larvae killed)” value in [8] stood at 83%. For the same molecule, in [3], the “% efficacy” value worked out at 83%.
As for `CC(C)=CCSc1ncc(C(=O)N(C)c2cccnc2)n1C` [I-A-35], in data set [4], the “logP[a]” value turned out to be 1.61 and the “logP[b]” value stood at 1.96. In addition, the “nematicidal efficacy (formation of galls)” value in data set [7] is given as 90%.
Turning to `CN(C(=O)c1cnc(S(=O)(=O)c2cc(Cl)cc(Cl)c2)n1C)c1cccnc1` [I-A-78], in data set [4], the “logP[a]” value turned out to be 2.37 and the “logP[b]” value turned out to be 2.53. Moreover, the “efficacy (aphids killed)” value in [5] (application rate 100 g/ha) stood at 90%. Further, in [6], the “efficacy (spider mites killed)” value is given as 90%. For the same molecule, the “% efficacy” value in [1] was 90%. The “% efficacy” value in [2] is recorded as 90%.
With `CN(C(=O)c1cnc([S+]([O-])c2ccc(Cl)c(C(F)(F)F)c2)n1C)c1cccnc1` (stereo not drawn) [I-A-79], in [4], the “logP[a]” value is recorded as 2.16 and the “logP[b]” value came out at 2.29. In addition, the “efficacy (aphids killed)” value in [5] (application rate 500 g/ha) was 90%. Also, the “efficacy (beetle larvae killed)” value in data set [8] is reported as 100%. In data set [3], the “% efficacy” value is listed as 100%.
Consider `CN(C(=O)c1cnc(S(=O)(=O)c2ccc(Cl)c(C(F)(F)F)c2)n1C)c1cccnc1` [I-A-80], for which, in [4], the “logP[a]” value came to 2.56 and the “logP[b]” value was found to be 2.72. In addition, the “efficacy (beetle larvae killed)” value in data set [8] is given as 100%. In data set [3], the “% efficacy” value is reported as 100%.
For `CN(C(=O)c1cnc([S+]([O-])c2ccc([N+](=O)[O-])cc2)n1C)c1cccnc1` (stereo not drawn) [I-A-89], in [4], the “logP[a]” value stood at 1.20 and the “logP[b]” value is 1.38. Further, the “efficacy (kill of aphids)” value in [9] stood at 99%. Moreover, the “% efficacy” value in data set [1] is 70%.
The corresponding values for `COc1ccc([S+]([O-])c2ncc(C(=O)N(C)c3cccnc3)n2C)cc1` (stereo not drawn) [I-A-93] are 1.12, 1.28, 95% and 70%.
For `CN(C(=O)c1cnc(S(=O)(=O)c2ncccn2)n1C)c1cccnc1` [I-A-99], in that order: 0.66, 0.87, 100% and 70%.
Take `CN(C(=O)c1cnc(Sc2ncc(C(F)(F)F)cn2)n1C)c1cccnc1` [I-A-105]: in [4], the “logP[a]” value is listed as 1.64 and the “logP[b]” value is given as 1.73. Further, the “efficacy (aphids killed)” value in data set [5] (application rate 500 g/ha) is listed as 100%. For the same molecule, the “efficacy (spider mites killed)” value in [6] is listed as 90%. Besides, the “% efficacy” value in data set [1] turned out to be 100%. In data set [2], the “% efficacy” value is given as 90%.
